Reference: PubChem BioAssay AID1963828 (Molecular Pharmacology Branch, DTP, NCI, 2024)

System: 991263-137-R1-J2-PDC complex spheroid viability
Test: Anticancer human tumor 991263-137-R1-J2-PDC patient-derived colon adenocarcinoma cell line growth inhibition [POLQ]
Conditions: for IC50: curve of first compound; for viability, T/C: stronger effect = lower value
How it was run: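 Patient-derived tumour cells were co-cultured with HUVEC and mesenchymal stem cells as multicellular spheroids at 37 °C. They were treated with POLQ inhibitors (novobiocin, ART-558, RP6685) alone or combined with other agents. Top concentrations were at or near clinical Cmax (otherwise 10 microM; SN-38 at 1 microM), decreasing in half-log steps.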

[1] = second compound 0.0316 µM, first compound 0.0316 µM
[2] = second compound 0.0316 µM, first compound 0.1 µM
[3] = second compound 0.0316 µM, first compound 0.316 µM
[4] = second compound 0.0316 µM, first compound 1 µM
[5] = second compound 0.1 µM, first compound 0.0316 µM
[6] = second compound 0.1 µM, first compound 0.1 µM
[7] = second compound 0.1 µM, first compound 0.316 µM
[8] = second compound 0.1 µM, first compound 1 µM
[9] = second compound 0.316 µM, first compound 0.0316 µM
[10] = second compound 0.316 µM, first compound 0.1 µM
[11] = second compound 0.316 µM, first compound 0.316 µM
[12] = second compound 0.316 µM, first compound 1 µM
[13] = second compound 1 µM, first compound 0.0316 µM
[14] = second compound 1 µM, first compound 0.1 µM
[15] = second compound 1 µM, first compound 0.316 µM
[16] = second compound 1 µM, first compound 1 µM
[17] = second compound 3.16 µM, first compound 0.0316 µM
[18] = second compound 3.16 µM, first compound 0.1 µM
[19] = second compound 3.16 µM, first compound 0.316 µM
[20] = second compound 3.16 µM, first compound 1 µM
[21] = second compound 10 µM, first compound 0.0316 µM
[22] = second compound 10 µM, first compound 0.1 µM
[23] = second compound 10 µM, first compound 0.316 µM
[24] = second compound 10 µM, first compound 1 µM
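Also: spheroids exposed to compounds for 7 days before readout.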
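For viability, T/C in this document: 100% = DMSO vehicle control viability.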

## CCc1c2c(nc3ccc(O)cc13)-c1cc3c(c(=O)n1C2)COC(=O)[C@]3(O)CC + Nc1ccc(C#CCN(C(=O)Cc2ncc(C(F)(F)F)cc2C(F)(F)F)c2ccc(F)cc2)nn1
Second compound 0.0316 µM
  IC50: 81 nM
Second compound 0.1 µM
  IC50: 62.1 nM
Second compound 0.316 µM
  IC50: 101 nM
Second compound 1 µM
  IC50: 110 nM
Second compound 3.16 µM
  IC50: 90.9 nM
Second compound 10 µM
  IC50: 94.1 nM
Second compound 0.0316 µM, first compound 0.00316 µM
  viability, T/C: 90.7%
Second compound 0.0316 µM, first compound 0.01 µM
  viability, T/C: 76.1%
[1]
  viability, T/C: 51.9%
[2]
  viability, T/C: 51.2%
[3]
  viability, T/C: 42%
[4]
  viability, T/C: 26.2%
Second compound 0.1 µM, first compound 0.00316 µM
  viability, T/C: 95.9%
Second compound 0.1 µM, first compound 0.01 µM
  viability, T/C: 78.6%
[5]
  viability, T/C: 52.9%
[6]
  viability, T/C: 45.3%
[7]
  viability, T/C: 42.8%
[8]
  viability, T/C: 30.2%
Second compound 0.316 µM, first compound 0.00316 µM
  viability, T/C: 102%
Second compound 0.316 µM, first compound 0.01 µM
  viability, T/C: 89.6%
[9]
  viability, T/C: 58%
[10]
  viability, T/C: 52.9%
[11]
  viability, T/C: 39.8%
[12]
  viability, T/C: 25.6%
Second compound 1 µM, first compound 0.00316 µM
  viability, T/C: 100%
Second compound 1 µM, first compound 0.01 µM
  viability, T/C: 81.5%
[13]
  viability, T/C: 56.7%
[14]
  viability, T/C: 55.4%
[15]
  viability, T/C: 42.8%
[16]
  viability, T/C: 28.2%
Second compound 3.16 µM, first compound 0.00316 µM
  viability, T/C: 89.7%
Second compound 3.16 µM, first compound 0.01 µM
  viability, T/C: 72.7%
[17]
  viability, T/C: 59.1%
[18]
  viability, T/C: 48%
[19]
  viability, T/C: 43.6%
[20]
  viability, T/C: 24.3%
Second compound 10 µM, first compound 0.00316 µM
  viability, T/C: 75%
Second compound 10 µM, first compound 0.01 µM
  viability, T/C: 65.1%
[21]
  viability, T/C: 58.3%
[22]
  viability, T/C: 53.3%
[23]
  viability, T/C: 35.7%
[24]
  viability, T/C: 24.5%

## COc1cccc2c1C(=O)c1c(O)c3c(c(O)c1C2=O)CC(O)(C(=O)CO)CC3OC1CC(N)C(O)C(C)O1 (centres undefined) + Cc1cccc(N(C)C(=O)C2C(O)CCN2c2nc(C)cc(C(F)(F)F)c2C#N)c1
Second compound 0.0316 µM
  IC50: 1410 nM
Second compound 0.1 µM
  IC50: 1850 nM
Second compound 0.316 µM
  IC50: 1740 nM
Second compound 1 µM
  IC50: 976 nM
Second compound 3.16 µM
  IC50: 1010 nM
Second compound 10 µM
  IC50: 790 nM
[1]
  viability, T/C: 90.1%
[2]
  viability, T/C: 99.4%
[3]
  viability, T/C: 79.1%
[4]
  viability, T/C: 55.9%
Second compound 0.0316 µM, first compound 3.16 µM
  viability, T/C: 38.5%
Second compound 0.0316 µM, first compound 10 µM
  viability, T/C: 35.3%
[5]
  viability, T/C: 105%
[6]
  viability, T/C: 91.9%
[7]
  viability, T/C: 92.2%
[8]
  viability, T/C: 56.7%
Second compound 0.1 µM, first compound 3.16 µM
  viability, T/C: 46.2%
Second compound 0.1 µM, first compound 10 µM
  viability, T/C: 33.8%
[9]
  viability, T/C: 114%
[10]
  viability, T/C: 99.4%
[11]
  viability, T/C: 94.8%
[12]
  viability, T/C: 57.2%
Second compound 0.316 µM, first compound 3.16 µM
  viability, T/C: 41.7%
Second compound 0.316 µM, first compound 10 µM
  viability, T/C: 34.1%
[13]
  viability, T/C: 92.8%
[14]
  viability, T/C: 95.4%
[15]
  viability, T/C: 102%
[16]
  viability, T/C: 48.9%
Second compound 1 µM, first compound 3.16 µM
  viability, T/C: 44.3%
Second compound 1 µM, first compound 10 µM
  viability, T/C: 27.6%
[17]
  viability, T/C: 99.6%
[18]
  viability, T/C: 107%
[19]
  viability, T/C: 74.2%
[20]
  viability, T/C: 51.8%
Second compound 3.16 µM, first compound 3.16 µM
  viability, T/C: 36.4%
Second compound 3.16 µM, first compound 10 µM
  viability, T/C: 26.9%
[21]
  viability, T/C: 97.1%
[22]
  viability, T/C: 78.3%
[23]
  viability, T/C: 68.9%
[24]
  viability, T/C: 40.8%
Second compound 10 µM, first compound 3.16 µM
  viability, T/C: 33.7%
Second compound 10 µM, first compound 10 µM
  viability, T/C: 15.7%
